According to patent publication US20240350503A1, “COMPOUNDS FOR TREATMENT OF VIRAL INFECTIONS BY NEUROTROPIC VIRUS” (priority 2021, published 2024):
“Also recorded” adds a separate entry of the source. Read-outs that look alike come from different tables or passages of the source.

Key:
[1] = system: VSV; type: cell-based, Indiana strain VSV; conditions: SH-SY5Y cells, 0.5 μM, 2 h pre-treatment, MOI 0.001, 18 h; versus DMSO control
[2] = system: HSV-2; experiment: virus plaque assay of supernatant from HSV-2 infected mouse primary neurons; type: cell-based, HSV-2 333 strain; conditions: 0.5 μM, 2 h pre-treatment, MOI 2, 72 h, versus DMSO control
Method: (§1) The isolated mouse primary-neurons were pre-treated with ML228 and DMSO at a concentration of 0.5 μM for 2 hours and were infected with HSV-1, at a MOI of 3 and HSV-2, at a MOI of 2. After 4 hours infection, the virus was removed and the cells were incubated with ML228 and DMSO for 72 hours. After 72 hours, the supernatant was used for virus plaque assay and the cells were lysed for RNA-extraction and RT-qPCRt.
(§2) Supernatants collected from mouse primary neurons treated with ML228 and DMSO and infected with HSV-1 and HSV-2, were used for virus titer in a virus plaque assay. For this purpose, Vero cells at a density of 1.2×10^6 cells/petri dish, in DMEM were seeded and left overnight in order to settle and to form a monolayer. The next day, cells were infected with 100 μL of supernatant in appropriate serial dilutions. The cells were incubated for 1 hour at 37° C. Subsequently, 5 ml DMEM supplemented with 0.2% normal human immunoglobin (Octapharma) were added to the cells. The plates were incubated for 2-3 days at 37° C. and stained with 0.03% methyl blue. The plaques were counted and the results were represented as PFU (plaque-forming units) per sample.

[3] = system: HSV-1; experiment: RT-qPCR of HSV-1 glycoprotein B RNA in infected mouse primary neurons; type: cell-based, HSV-1 KOS strain; conditions: 0.5 μM, 2 h pre-treatment, MOI 3, 72 h, versus DMSO control
Method: as §1
(§3) The RT-qPCR results were obtained by total RNA extraction using the High Pure RNA Isolation kit (Roche) according to the manufacturer's instructions. RNA quality and concentration was assessed using Nanodrop spectrometry (Thermo Fisher). Viral replication was analysed by measuring RNA level against HSV-(1/2) Glycoprotein B (gB) using Brilliant III Ultra-Fast SYBR Green QRT-PCR Master Mix kit (Agilent Technology). CT values were normalized versus 18srRNA (ACT) in HSV-(1/2) infection.

[4] = system: IRF1 gene expression; experiment: RNA-sequencing of IRF1 gene expression in SH-Sy5y cells upon ML228 treatment; type: cell-based, human; conditions: SH-Sy5y cells treated with AAVS1 sgRNA, ML228 0.5 μM for 8 h versus DMSO control
[5] = system: HSV-1; type: cell-based, HSV-1 KOS strain
[6] = system: HSV-1; experiment: virus plaque assay of supernatant from HSV-1 infected mouse primary neurons; type: cell-based, HSV-1 KOS strain; conditions: 0.5 μM, 2 h pre-treatment, MOI 3, 72 h, versus DMSO control
Method: as §1, §2

[7] = system: HSV-1; type: cell-based, HSV-1 KOS strain; remark: listed apart in the source
[8] = system: HSV-2; type: cell-based, HSV-2 333 strain
[9] = system: Influenza A virus; experiment: RT-qPCR of Influenza A virus matrix 2 (M2) RNA in infected SH-SY5Y cells; type: cell-based, Influenza virus A (H1N1) strain PR8; conditions: 1 μM, 2 h pre-treatment, MOI 0.1, 48 h, versus DMSO control
[10] = system: EMCV; type: cell-based, FA strain EMCV
[11] = system: HSV-2; experiment: RT-qPCR of HSV-2 glycoprotein B RNA in infected mouse primary neurons; type: cell-based, HSV-2 333 strain; conditions: 0.5 μM, 2 h pre-treatment, MOI 2, 72 h, versus DMSO control
Method: as §1, §3

[12] = system: HSV-2; type: cell-based, HSV-2 333 strain; remark: listed apart in the source

c1ccc(-c2ccc(CNc3nc(-c4ccccn4)nnc3-c3ccccc3)cc2)cc1 [ML228]
VSV titer / virus cytopathic effect (TCID50%) [1]: significantly reduces the virus cytopathic effect; also recorded: significantly decreased | number of plaque forming units (PFU) in titer, HSV-2 [2]: significantly less plaque-forming units; also recorded: significantly decreased | HSV-1 replication (virus gB RNA level) [3]: reduction of the viral replication; also recorded: significantly decreased | IRF1 gene expression, log 2 fold change [4]: 0.6842 | HSV-1 replication (virus gB RNA level) [5]: significantly decreased | number of plaque forming units (PFU) in titer, HSV-1 [6]: significantly reduced; also recorded: significantly decreased | number of plaque forming units (PFU) in titer, HSV-1 [7]: completely counteract the virus infection; also recorded: significantly decreased | HSV-2 replication (virus gB RNA level) [8]: significantly decreased | Influenza A virus replication (virus M2 RNA level) [9]: also reduced; also recorded: significantly decreased | EMCV titer / virus cytopathic effect (TCID50%) [10]: significantly decreased | HSV-2 replication (virus gB RNA level) [11]: severely inhibited; also recorded: significantly decreased | number of plaque forming units (PFU) in titer, HSV-2 [12]: completely counteract the virus infection; also recorded: significantly decreased
